Source: patent US20070149481A1, “N,n-bridged, nitrogen-substituted carbacyclic indolocarbazoles as protein kinase inhibitors” (priority 2002, published 2007)

Assays:
[1] = molecular target: T1, PKA (catalytic subunit, bovine heart) (Bos taurus, UniProt P00517); assay: Protein Kinase A inhibition assay (PKA); format: biochemical; details: 10 μM compound
T1 construct: PKA (catalytic subunit, bovine heart, Calbiochem 539486); purchased Calbiochem 539486; host or cells: bovine heart (tissue-derived)
Procedure: The ERK2 kinase activity assay utilizes a radioactivity-based format in a 96-well PCR plate with radioactive readout. The ERK2 activity was assayed in a 25 μL assay mixture containing 25 mM HEPES (pH 7.0), 250 μM ATP, 1 mM MgCl2, 1 mM DTT, 2% DMSO, 150 ng/mL Myelin Basic Protein (MBP, Sigma M-1891), and 13.6 ng/mL His tagged ERK2 (specific activity=38.1 nmol/min*mg). Compounds were screened for inhibition of the ERK2 kinase activity at a concentration of 10 μM. The kinase reaction was allowed to proceed at 37° C. for 30 minutes, then reaction was stopped by the addition of 5 μl of 0.5M EDTA (pH 8). 15 μL of each solution were then spotted onto the corresponding square of a filtermat (8×12 glassfibre mat 90×120 mm, PE-Wallac 1450-421). The filtermat was allowed to dry and washed once with 10% TCA, 2% PPA, 500 mM NaCl each for 30 minutes at rt. Two further washings in 10% TCA and 2% PPA for 30 minutes were performed, then a final 30 minute wash in 99% EtOH at rt was done and the filtermat was air dried. The dry filtermat was then placed in a sample bag with a Meltilex sheet (Melt-on scintillator sheets 73×109 mm, PE-Wallac 1450-441 for filtermat A) over the filtermat. The bag was trimmed to fit into the microplate heatsealer (PE-Wallac 1495-021). The heatsealer is used to melt the Meltilex on the filtermat. The bag containing the filtermat and the melted Meltilex was then placed into a filter cassette and counted using the Microbeta Jet Scintillation and Luminescence Counter PE-Wallac 1450.
The PKA kinase activity assay utilizes a radioactivity-based format in a 96-well PCR plate with radioactive readout. The PKA activity was assayed in a 25 μL assay mixture containing 25 mM HEPES (pH 7.0), 250 μM ATP, 10 mM MgCl2, 1 mM DTT, 1 mM EDTA (pH 8). 2% DMSO. 250 ng/mL Histone H2B (Roche 223 514), and 2 ng/mL PKA (catalytic subunit, bovine heart, Calbiochem 539486, specific activity=1170 pmol/min*μg). Compounds were screened for inhibition of the PKA kinase activity at a concentration of 10 μM. The kinase reaction was allowed to proceed at 37° C. for 30 minutes, then the reaction was stopped by addition of 5 μL of 0.5M EDTA (pH 8). The remainder of the protocol is identical to the one reported for ERK2.

[2] = Determination of brain/plasma ratios for K252a and NAD002 for comparison with NAD0241 (Example 56F); format: in vivo, Wistar Han Rats; details: rats, 1 hour post-administration
Procedure: Application of Compound: 5 mg/kg of NAD 241 and NAD0180 each in a vehicle of 1.5 mL/kg PEG 400 Macrogol Ph. Eur. were applied i.v. through the femoral vein to two groups (n=3) of Wistar Han Rats weighing between 240-270 g. The application was performed under anaesthesia, initiated with 3.5% Isofluorane/O2, then maintained at 1% during compound application and suture of the vein. 200 μL of local anaesthetic lidocaine were locally administered. 1 hour after application of the compound 200 μl of blood were obtained by tail vein incision. Immediately following the blood sampling rats were terminated by decapitation after brief CO2 anaesthesia Brains were resected and weighed. Plasma was obtained by centrifugation of the tail vein blood at 13000 g for 20 minutes at 4° C. Prior art compounds […] and NAD002 and were assessed using identical conditions of application as used in example 56E to provide a direct comparison with NAD0241 for the ability to penetrate the blood-brain barrier. Volumes of injection for all compounds (including NAD0241) was fixed at 2.3 mL/kg, in average about 500-600 μL per animal. The other parameters were left unchanged. Sampling of body fluids and brain tissue was performed as described in example 56E. Extraction of compounds from brain and plasma was performed as described in example 56E but no concentrated ammonia solution was added prior to extraction of […] and NAD002. HPLC analysis of […] was performed on a 5 μm Merck RP 18 Select B 12.5×4.6 mm column at a flow rate of 0.75 mL/min with isocratic elution by acetonitrile/water 60/40 (v/v). Fluorescent excitation/emission was at 284 nm/476 nm. NAD002 was analyzed on a C 18 shield symmetry 25×4.6 mm (Waters and Owen) at 40° C. using excitation/emission wavelengths of 315/565 nm. Quantitations were performed as under example 56E.

GSK3β = molecular target: T2, GSK3β (Homo sapiens, UniProt P49841); assay: Glycogen Synthase Kinase 3β inhibition assay (GSK3β); format: biochemical; details: 10 μM compound
T2 construct: purchased Upstate Discovery
Procedure: The GSK3β kinase activity assay utilizes a radioactivity-based format in a 96-well PCR plate with radioactive readout. The GSK3 β activity was assayed in a 25 μL assay mixture containing 8 mM HEPES (pH 7.0), 250 μM ATP, 0.2 mM EDTA (pH 8), 2% DMSO, 250 ng/mL Myelin Basic Protein (MBP, Sigma M-1891), and 12 ng/mL GSK3β (Upstate Discovery, specific activity=607 nmol/min*GS2 peptide, concentration of 6.05 mg/mL). Compounds were screened for inhibition of the GSK3β kinase activity at a concentration of 10 μM. The kinase reaction was allowed to proceed at 37° C. for 30 minutes, then the reaction was stopped by addition of 5 μL of 0.5M EDTA (pH 8).

T2 sequence (P49841 whole entry, species assumed): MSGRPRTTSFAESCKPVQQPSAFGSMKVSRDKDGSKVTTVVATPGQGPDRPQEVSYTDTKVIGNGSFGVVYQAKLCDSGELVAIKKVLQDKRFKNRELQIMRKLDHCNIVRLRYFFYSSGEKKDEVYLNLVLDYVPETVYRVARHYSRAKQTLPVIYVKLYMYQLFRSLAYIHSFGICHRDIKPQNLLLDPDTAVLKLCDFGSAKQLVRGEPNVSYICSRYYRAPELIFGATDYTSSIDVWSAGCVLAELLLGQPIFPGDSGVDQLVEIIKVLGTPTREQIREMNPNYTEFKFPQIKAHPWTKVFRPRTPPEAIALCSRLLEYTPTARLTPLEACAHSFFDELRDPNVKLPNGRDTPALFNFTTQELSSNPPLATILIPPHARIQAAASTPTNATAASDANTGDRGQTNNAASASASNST

inhibition at 10 µM [1]: 96.8%
Kp at 1 h ([2]; Wistar Han, rat, brain and plasma, iv, 5 mg/kg, 5 mg/kg i.v., 2.3 mL/kg PEG 400, read-out: brain/plasma ratio): ~1
brain concentration compared with NAD002 [2]: Significantly higher
improvement of brain/plasma ratio over K252a [2]: about two-fold
improvement of brain/plasma ratio over NAD002 [2]: several-fold
plasma levels compared with NAD002 and K252a [2]: Lower
inhibition at 10 µM (GSK3β): 100%
SMILES: NC(=O)[C@]1(N)CC2CC1n1c3ccccc3c3c4c(c5c6ccccc6n2c5c31)C(=O)NC4=O (mixture of isomers) [Compound 5]
